Legend:
[1] = Partition coefficient (logD6.5); assay type: physicochemical; conditions: octanol/water, pH 6.5
[2] = octanol/water
clinical [3] = conditions: human, in vivo, po
[4] = human, in vivo, po
[5] = octanol/water; remark: listed apart in the source
[6] = octanol/water; remark: listed apart in the source
[7] = Oral bioavailability in human; assay type: ADME, organism-based; conditions: in vivo
physchem [8] = conditions: octanol/water, pH 6.5, logD
physchem [9] = test: physchem
[10] = octanol/water; remark: listed apart in the source
clinical [11] = conditions: human, in vivo, po; remark: listed apart in the source
clinical [12] = conditions: human, in vivo, po; remark: listed apart in the source
physchem [13] = conditions: octanol/water, pH 6.5

SMILES | delta logD [2] | delta logD [6] | pKa (physchem [9]) | bioavailability (clinical [12]) [%] | further results
CO/C(O)=C1\C(C)=NC(C)=C(C(=O)OC(C)C)C1c1cccc2nonc12 (configuration not stated) | 0 | – | – | – | logD [1]: 1.72; bioavailability (clinical [3]; F): ≤ 20%
Nc1ccn([C@H]2CC[C@@H](CO)O2)c(=O)n1 (stereo in doubt; 1) [ZALCITABINE] | – | – | – | – | F [4]: < 20%; logD [5]: 3.2
Nc1ccn([C@H]2CC[C@@H](CO)O2)c(=O)n1 (stereo in doubt; 232) [ZALCITABINE] | – | 0 | – | – | F [4]: > 80%
O=C1C(O)=C([C@H]2CC[C@H](c3ccc(Cl)cc3)CC2)C(=O)c2ccccc21 [ATOVAQUONE] | – | – | – | – | bioavailability [7]: 49%; logD (physchem [8]): 3.96
CC(C)NCC(O)COc1ccc(CCOCC2CC2)cc1 (configuration not stated) [BETAXOLOL] | – | -0.9 | 9.4 | – | logD ([5]; pH 6.5): -0.07; bioavailability (clinical [3]; F): > 80%
O=C(O)CCCc1ccc(N(CCCl)CCCl)cc1 [CHLORAMBUCIL] | – | 0.82 | – | – | logD [5]: 2.29; bioavailability (clinical [3]): > 80%
COc1ccc2c3c1O[C@H]1[C@@H](O)C=C[C@H]4[C@@H](C2)N(C)CC[C@@]341 [CODEINE] | – | -0.8 | – | – | logD [5]: -0.28; bioavailability (clinical [3]): 79%
CC[C@@H](CO)NCCN[C@@H](CC)CO [ETHAMBUTOL] | -0.9 | – | 9.5 | – | logD [10]: -4.02; bioavailability (clinical [11]): 79%
CC(CCc1ccccc1)NCC(O)c1ccc(O)c(C(N)=O)c1 (configuration not stated) [LABETALOL] | -0.9 | – | 9.3 | 49 | logD (physchem [13]): 0.35
CN(Cc1cnc2nc(N)nc(N)c2n1)c1ccc(C(=O)N[C@@H](CCC(=O)O)C(=O)O)cc1 [METHOTREXATE] | 0.9 | – | – | – | logD [10]: -4.55; bioavailability (clinical [11]): 79%
Cc1ncc2n1-c1ccc(Cl)cc1C(c1ccccc1F)=NC2 [MIDAZOLAM] | -0.14 | – | 6.1 | 49 | logD (physchem [13]): 1.37
CCOC(=O)Nc1ccc2c(c1)N(C(=O)CCN1CCOCC1)c1ccccc1S2 [MORICIZINE] | -0.21 | – | 6.4 | 49 | logD (physchem [13]): 2.73
CC(C)(C)NCC(O)COc1cccc2c1CC(O)C(O)C2 (configuration not stated) [NADOLOL] | -0.9 | – | 9.7 | 49 | logD [10]: -2.46
CCOC(=O)C1=C(C)NC(C)=C(C(=O)OC)C1c1cccc([N+](=O)[O-])c1 (configuration not stated) [NITRENDIPINE] | – | 0 | – | – | logD [5]: 0.97; bioavailability (clinical [3]; F): < 20%
C=CCOc1ccccc1OCC(O)CNC(C)C (configuration not stated) [OXPRENOLOL] | -0.9 | – | 9.3 | 49 | logD ([10]; pH 6.5): -0.72
OCCN1CCN(CCCN2c3ccccc3Sc3ccc(Cl)cc32)CC1 [PERPHENAZINE] | -0.77 | – | – | – | logD [10]: 2.88; bioavailability (clinical [11]): 79%
CN1CCN(CC(=O)N2c3ccccc3C(=O)Nc3cccnc32)CC1 [PIRENZEPINE] | -0.83 | – | 8.1 | 49 | logD [10]: -1.51
CC(C)NC[C@H](O)COc1ccc(O)cc1 [PRENALTEROL] | -0.89 | – | 9.2 | 49 | logD (physchem [13]): -1.61
O=C(c1ccc(OCCN2CCCCC2)cc1)c1c(-c2ccc(O)cc2)sc2cc(O)ccc12 [RALOXIFENE] | – | -0.9 | 9 | – | logD ([5]; pH 6.5): 1.08; bioavailability (clinical [3]; F): < 20%
CNC(=C[N+](=O)[O-])NCCSCc1ccc(CN(C)C)o1 [RANITIDINE] | – | -0.84 | – | – | logD ([5]; pH 6.5): -1.44; bioavailability (clinical [3]; F): 79%

From ChEMBL document CHEMBL1133765, “QSAR model for drug human oral bioavailability” (J Med Chem, 2000)
